The record followed here is patent publication US20250214942A1, “INHIBITORS OF RECEPTOR INTERACTING PROTEIN KINASE I FOR THE TREATMENT OF DISEASE” (Board of Regents, The University of Texas System, priority 2019, published 2025).

In general, IC50 refers to the concentration needed to halve the response being measured.

The subject of one assay is human monocytic cell line U937. Briefly: Human U937 cellular necroptosis assay (TNFalpha + z-VAD-FMK, Cell Titer-Glo viability). Particulars: Homo sapiens, U-937, 22 h, U937 cells, 25 ng/mL human TNFalpha + 25 μM z-VAD-FMK, read-out: hU937 Avg IC50. The assay is classed as cell-based. A digest of the protocol:
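Cells resuspended in phenol red-free RPMI with 10% FBS, stimulated with 25 ng/mL human TNFalpha plus 25 μM z-VAD-FMK, then given serially diluted compound for 22 h at 37° C, 5% CO2. Viability by Cell Titer-Glo 2.0 luminescence; IC50 from four-parameter logistic fit, averaged across runs.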
`N#Cc1cnc(OCC23CC(C(=O)NCc4c(F)cccc4F)(C2)C3)cn1` [Example 294, 3-(((5-cyanopyrazin-2-yl)oxy)-methyl)-N-(2,6-difluoro-benzyl)bicyclo[1.1.1]pentane-1-carboxamide]: the IC50 is 5.61 µM.

As for `C[C@@H](c1ccccc1F)N(C)C(=O)C12CC(COc3cnc(C#N)cn3)(C1)C2` [Example 295, (S)-3-(((5-cyanopyrazin-2-yl)oxy)methyl)-N-(1-(2-fluoro-phenyl)ethyl)-N-methyl-bicyclo[1.1.1]pentane-1-carboxamide], the IC50 is 5.68 µM.

Turning to `N#Cc1cnc(OCC23CC(C(=O)NCc4cccc(F)c4F)(C2)C3)cn1` [Example 296, 3-(((5-cyanopyrazin-2-yl)-oxy)methyl)-N-(2,3-difluoro-benzyl)bicyclo[1.1.1]pentane-1-carboxamide], the IC50 was 5.85 µM.

As to `C[C@H](NC(=O)C12CC(COc3cnc(C#N)cn3)(C1)C2)c1cc(F)ccc1F` [Example 297, (S)-3-(((5-cyanopyrazin-2-yl)-oxy)methyl)-N-(1-(2,5-difluorophenyl)ethyl)bicyclo-[1.1.1]pentane-1-carboxamide], the IC50 is 6.06 µM.

Consider `N#Cc1cnc(OCC23CC(C(=O)NCc4cc(F)ccc4F)(C2)C3)cn1` [Example 298, 3-(((5-cyanopyrazin-2-yl)oxy)-methyl)-N-(2,5-difluoro-benzyl)bicyclo[1.1.1]pentane-1-carboxamide], for which the IC50 was determined as 6.7 µM.

In the case of `CN(C(=O)C12CC(Cn3ncc4cc(C#N)ccc43)(C1)C2)c1ccccc1Cl` [Example 299, N-(2-chlorophenyl)-3-((5-cyano-1H-indazol-1-yl)-methyl)-N-methylbicyclo-[1.1.1]pentane-1-carboxamide], the IC50 amounted to 7.01 µM.

Regarding `CC(c1cc(F)ccc1F)N(C)C(=O)C12CC(COc3cnc(C#N)cn3)(C1)C2` (stereo not shown) [Example 301, 3-(((5-cyanopyrazin-2-yl)oxy)-methyl)-N-(1-(2,5-difluoro-phenyl)ethyl)-N-methyl-bicyclo[1.1.1]pentane-1-carboxamide], the IC50 was 7.74 µM.

For `CC1CCN(C(=O)C23CC(COc4cnc(C#N)cn4)(C2)C3)C1c1ccccc1` (stereo not shown) [Example 302, 5-((3-(3-methyl-2-phenyl-pyrrolidine-1-carbonyl)-bicyclo[1.1.1]pentan-1-yl)-methoxy)pyrazine-2-carbonitrile], the IC50 worked out at 9.87 µM.

Consider `N#Cc1ccc(OCC23CC(C(=O)N4N=CCC4c4ncccc4F)(C2)C3)nc1` (stereo not shown) [Example 303, 6-((3-(5-(3-fluoropyridin-2-yl)-4,5-dihydro-1H-pyrazole-1-carbonyl)bicyclo[1.1.1]-pentan-1-yl)methoxy)-nicotinonitrile], for which the IC50 was determined as 0.5 µM.

As to `Cc1cc(F)c(C2CC=NN2C(=O)C23CC(COc4cnc(C#N)cn4)(C2)C3)c(F)c1` (stereo not shown) [Example 304, 5-((3-(5-(2,6-difluoro-4-methylphenyl)-4,5-dihydro-1H-pyrazole-1-carbonyl)-bicyclo[1.1.1]pentan-1-yl)-methoxy)pyrazine-2-carbonitrile], the IC50 came out at 0.006 µM.

Regarding `Cc1cc(F)c(C2CC=NN2C(=O)C23CC(COc4ccc(C#N)cn4)(C2)C3)cc1F` (stereo not shown) [Example 305, 6-((3-(5-(2,5-difluoro-4-methylphenyl)-4,5-dihydro-1H-pyrazole-1-carbonyl)-bicyclo[1.1.1]pentan-1-yl)-methoxy)nicotinonitrile], the IC50 is 0.0065 µM.

The same assay, now with this note: U937 cells, 25 ng/mL human TNFalpha + 25 μM z-VAD-FMK, 22 h; read-out: hU937 Avg IC50.
`N#Cc1cnc(OCC23CC(C(=O)NCc4ccccc4F)(C2)C3)cn1` [Example 293, 3-(((5-cyanopyrazin-2-yl)oxy)-methyl)-N-(2-fluorobenzyl)-bicyclo[1.1.1]pentane-1-carboxamide]: the IC50 stood at 1.5 µM.

Take `N#Cc1cnc(OCC23CC(C(=O)NCc4ccccc4F)(C2)C3)cn1` [Example 300, 3-(((5-cyanopyrazin-2-yl)-oxy)methyl)-N-(2-fluoro-benzyl)bicyclo[1.1.1]pentane-1-carboxamide]: the concentration for half-maximal inhibition (IC50) is 7.42 µM.
